Assay results: patent US10159670B2, “Methods of diagnosing and treating motor neuron diseases and other cellular stress-related diseases” (priority 2012, dated 2018)
Entries after “also recorded” stand apart in the source; their conditions may differ.

Legend:
[1] = test system: HEK293 cells transfected with ALS-causing mutant SOD1 G93A; assay: miRNA and pre-miRNA expression (qPCR) in HEK293 cells transfected with SOD1 G93A; format: cell-based; conditions: 100 μM Enoxacin
Method: Data normalized to miRNA levels in cultures that were transfected with GFP and treated with Doxycyclin and to the expression of the small RNAs 5S. Pre-miRNA expression normalized to beta-actin. […] For miRNA studies in cultured cells, reverse transcription for consecutive parallel analysis of pre-miRNA and miRNA expression was performed using miScript I & II Kits (Quiagen). Quantitative analysis of miRNA and pre-miRNA expression performed with StepOnePlus Real-Time PCR System (Life technologies Inc.). All experiments were performed in at least 3 independent biological repeats and qPCR performed in technical duplicates.

[2] = test system: SOD1 G93A mouse model of ALS; assay: In vivo Enoxacin study of neuromuscular function in SOD1 G93A mice
Method: 800 mg/kg-bodyweight/day (n=40) or carrier (water; n=37) to SOD1 G93A male mice started day 42 of the mouse life. […] 200 mg/kg-bodyweight/day or carrier (water) to SOD1 G93A male mice started day 42 of the mouse life. […] Error bars, s.d.
Food and water was provided ad libitum. […] All other tests employed 2-way ANOVA.
To further evaluate motor function an automated quantitative gait analysis was performed using the CatWalk system [Neumann et al. (2009) J Neurosci Methods 176(1): 34-44].

[3] = test system: SOD1 G93A mouse model of ALS; assay: miRNA expression in lumbar spinal cords of SOD1 G93A mice (qPCR); conditions: oral, 800 mg/kg body weight per day for 48 days
Method: Multiple time-point analysis of miRNA expression in the lumbar spinal cords (L4, L5) of SOD1 G93A mutant mice relative to wild-type sibling controls (3 spinal cords per group). (FIG. 11A) qPCR analysis of miRNAs normalized to average of snoRNA202 and snoRNA234. (FIG. 11B) Levels of mRNA encoding for protein components of the Dicer complex were measured and normalized to the expression of Gapdh. […] (FIG. 11D) Levels of mRNA encoding for protein components of the Dicer complex were measured and normalized to the expression of Gapdh. 2-way ANOVA-testing with significant p-values indicated by *p<0.05, **p<0.01, ***p<0.001. Error bars, s.d.

[4] = Enoxacin pharmacokinetics and efficacy in CF-1 mice (literature); format: in vivo, mouse; conditions: 100 mg/kg orally in drinking water per day
[5] = humans; single Enoxacin of 600 mg; cited from earlier work
[6] = test system: HEK293 cells transfected with ALS-causing mutants TDP-43 A315T or FUS 495X; assay: miRNA and pre-miRNA expression (qPCR) in HEK293 cells transfected with ALS-causing TDP-43 or FUS mutants; format: cell-based; conditions: 100 μM Enoxacin
From the text: Depicted are bar-graph representations of relative miRNA expression levels in cells, transfected with GFP and treated with Doxycyclin, compared to the expression of the small RNAs U6 or 5S, on a log2 scale. […] Data normalized to miRNA levels in cultures that were transfected with GFP and treated with Doxycyclin and to the expression of the small RNAs U6 or 5S. Pre-miRNA expression normalized to beta-actin. […] For miRNA studies in cultured cells, reverse transcription for consecutive parallel analysis of pre-miRNA and miRNA expression was performed using miScript I & II Kits (Quiagen). Quantitative analysis of miRNA and pre-miRNA expression performed with StepOnePlus Real-Time PCR System (Life technologies Inc.). All experiments were performed in at least 3 independent biological repeats and qPCR performed in technical duplicates. The present inventors reasoned that Dicing of pre-miRNAs is inhibited by the expression of ALS-causing versions of TDP-43 or FUS and thus searched for changes in mRNA encoding for miRNA-processing factors in gene expression and splicing data from the same patients^9. […] Thus, impaired miRNA bioprocessing in ALS may be reversible by a non-toxic Fluoroquinolone.

SOD1 G93A mice = assay: Preliminary Enoxacin study in SOD1 G93A mice (from age of 50 days in drinking water); format: in vivo, mouse
Method: For in vivo experiments, transgenic SOD1 (superoxide dismutase 1) mice were used which express a G93A mutant form of human SOD1. […] Mouse life span and neuromuscular function were monitored. Neuromuscular function was assessed by neurological score that tests the mouse muscle tonus reflexes and overall in-cage locomotive activity as previously described in […] et al. [[…] et al., Brain Res. (2011) Jun. 7; 1394:90-104]. Hang-wire test was utilized which measures gross physical strength of forelimbs, hindlimbs, capacity to adduct when hand on a pole and to walk. Automated Catwalk gait analysis system was utilized which is based on camera monitored computerized locomotion testing automated system by Noldus Information Technology, The Netherlands.

frontal cortex of rats = conditions: cited from earlier work
[7] = test system: TDP-43 A315T mouse model of ALS
Method: 200 mg/kg-bodyweight/day (n=9) or carrier (water; n=8) to TDP-43 A315T mutant female mice started at day 42 of the mouse life. (FIG. 13A) Onset of symptoms (neurological score 1); 2-way ANOVA p=0.0013. […] Error bars, s.d.
Animals were group-housed on a 12 hour light-dark cycle. Food and water was provided ad libitum. […] RotaRod™ performance (San Diego Instruments) was evaluated at ramp speed 4, 40 rpm. Data was presented as the average latency to fall off the rotarod of three independent rounds per time point, and was normalized to average initial performance at pre-symptomatic stage for each individual for each time point. A fully automated gait analysis with the Catwalk XT™ (Noldus) system was performed. Data was obtained of more than 4 independent rounds on the apparatus. For Hangwire muscle strength assessment, mice were allowed forelimb grip onto a 2-mm thick horizontal metal wire, suspended 80 cm above surface. Ability to successfully raise hindlimbs to grip the wire and crawling to the end of the wire was scored: 1=Successful four-paw grip and crawling to the end of the wire within less than 60 seconds. 2=Four-paw grip for more than 15 seconds without crawling. 3=Failure to successfully establish hindlimb grip in 60 seconds. 4=Inability to sustain forelimb grip for 60 seconds. Each mouse was evaluated in 2 sessions on 2 consecutive days, consisting of 3 trials each, with a 15 minute inter-trial interval. […] 1=collapse or partial leg collapse towards midline or hind leg trembling during tail suspension. 2=toes curl under at least twice during a 12 inch walk, or any part of foot is dragging along cage/table bottom. 3=rigid paralysis or minimal joint movement, foot not being used for forward motion. 4=humane endpoint, mouse cannot right itself within 30 seconds on either side. The locomotion of animals was quantified over a period of 46 hrs in the home cage, by automated sensing of body-heat image using an InfraMot (TSE-Systems). Individual animal movements were summed up every 30 minutes. Animal statistics: Homecage locomotion was analyzed using the 2-sided Student's t-test. Rotarod performance was evaluated using the 2-way ANOVA with repeated measures for each individual. Weight peak, weight decline, onset of symptoms and survival were calculated with GraphPad Prism 6 using the Logrank (Mantel-Cox) test. All other tests employed 2-way ANOVA.

[8] = cited from earlier work
[9] = test system: interaction of Ago2 with Dicer and eIF3L; assay: Targeted mass spectrometry of Ago2 interactions in FUS R495X-expressing cells; format: cell-based; conditions: Cycloheximide 0.02 μg/ml, 72 hrs
Method: (FIG. 9A) The ratio of pre-miRNA to mature miRNA levels in NSC-34 cells, transfected with plasmids as indicated and in cells treated for 72 hrs with carrier alone (water, black) or with cycloheximide (CHX, 0.02 μg/ml, gray). Data normalized to control plasmid transfection. Pre-miRNAs further normalized to Gapdh (for FUS R495X, TDP-43 A315T) or to beta-actin (SOD1 G93A) and miRNA levels normalized to Snord68. Average of three independent experiments except for pre-miRNAs in the study of FUS R495X (n=2). Targeted quantitative mass spectrometry analysis of changes in the binding of Ago2 or Dicer to a set of proteins interactors under stress (FIGS. 9B-E). Immunoprecipitated Ago2-Flag (FIG. 9B) or Dicer-Flag (FIG. 9C) from HEK 293 cells, cultured under basal conditions or treated with sodium arsenite (0.5 mM, 60 min) was subjected to targeted mass-spectrometry analysis. Data is averaged from two or three different peptide standards per protein and normalized to the levels of co-immunoprecipiated peptides from untreated cells. Statistically significant result in a student t-test, between arsenite and control treatment is denoted (*p<0.05). Targeted mass spectrometry of (FIG. 9D) Dicer cofactors or (FIG. 9E) SG components, immunoprecipitated with AGO-Flag in FUS R495X-expressing HEK 293 that were further treated for 72 hrs with carrier alone or Cycloheximide (0.02 μg/ml). […]

[10] = test system: NSC-34 cells transfected with FUS R495X, TDP-43 A315T or SOD1 G93A; assay: Ratio of pre-miRNA to miRNA levels in NSC-34 cells transfected with ALS-causing mutants; format: cell-based; conditions: CHX 0.02 μg/ml, 72 hrs
From the text: Ratio of pre-miRNA to miRNA expression levels in NSC-34 cells, transfected with plasmids that drive the expression of FUS R459X (FIG. 10A), TDP-43 A315T (FIG. 10B) or SOD1 G93A (FIG. 10C), relative to control plasmid transfection. […] Average of 3 independent experiments, except for pre-miRs in FUS R495X (n=2).
RNA was extracted using Tri reagent (Molecular Research Center Inc.) or Qiazol with consecutive use of the miRNeasy Mini Kit (Qiagen). Pre-miRNA and miRNA reverse transcription was performed using miScript Kits No. I & II (Qiagen). Quantitative analysis of miRNA and pre-miRNA expression performed in more than 3 independent biological repeats and additionally in technical duplicates with StepOnePlus quantitative Real-Time PCR System and 2-sided ANOVA-test performed with DataAssist Software (Life technologies Inc.). […]

[11] = oral 800 mg/kg-bodyweight/day from day 42
[12] = 200 mg/kg in drinking water from the age of 50 days

Compound: CCn1cc(C(=O)O)c(=O)c2cc(F)c(N3CCNCC3)nc21 [Enoxacin]
- mature miRNA expression [1]: recovers the downregulation of mature miRNA expression
- pre-miRNA levels [1]: reverses pre-miRNA upregulation
- gross strength (hangwire assay) ([2]; 200 mg/kg-bodyweight/day): significant improvement in gross strength
- homecage locomotion (InfraMot) ([2]; 200 mg/kg-bodyweight/day, 46 hrs, day 129-130): moved significantly more than untreated controls
- Rotarod performance ([2]; 200 mg/kg-bodyweight/day, day 120, normalized to day 50): beneficial impact; also recorded: stable performance at day 120
- swing speed (CatWalk gait analysis) ([2]; 800 mg/kg-bodyweight/day, day 73): significantly higher
- stride length (CatWalk gait analysis) ([2]; 800 mg/kg-bodyweight/day, day 80): significantly increased
- Rotarod performance ([2]; 800 mg/kg-bodyweight/day, normalized to day 92): significantly improved performance
- delay at the onset of neurological symptoms (neurological score 1) [2, 11]: about 7 days
- neurological status (neurological score) [2, 11]: superior to untreated controls
- onset of weight decline (loss of 1 gram body weight after the weight peak) [2, 11]: delayed
- weight peak [2, 11]: delayed
- survival / lifespan (Kaplan-Meier) ([2]; oral 800 mg/kg-bodyweight/day from day 42, 800 mg/kg): no significant differences; also recorded: did not extend the lifespan
- mRNA levels of Ago2, Dicer, PACT and TRBP [3]: remained unchanged
- miRNA levels in lumbar spinal cords ([3]; from day 42, harvest day 90): compensated
- serum peak concentration expressed in molar terms [4]: 12.5 µM
- plasma peak concentration [5]: 3.7 µg/mL
- mature miRNA expression [6]: reversed the negative impact of ALS-causing TDP-43 or FUS mutants on miRNA maturation; also recorded: recovers the downregulation of mature miRNA expression
- pre-miRNA levels [6]: reverses pre-miRNA upregulation
- gross strength in a hang-wire test (SOD1 G93A mice; [12]): beneficial impact
- neurological score (SOD1 G93A mice; [12]): beneficial impact
- overall lifespan (SOD1 G93A mice; [12]): marginal effect
- overall locomotive function in a computerized cat-walk assay (SOD1 G93A mice; [12]): beneficial impact
- deterioration in mouse neuromuscular function (SOD1 G93A mice; neurological score, hang-wire test, automated cat-walk study): slower
- expression of miRNAs in the frontal cortex (frontal cortex of rats): increase the expression of miRNAs
- impact on depression (frontal cortex of rats): beneficial impact
- Rotarod performance up to day 120 ([7]; 200 mg/kg-bodyweight/day): stable performance up to day 120 of life
- gross strength (hangwire assay) ([7]; 200 mg/kg-bodyweight/day): improved
- average stride length (Catwalk) ([7]; 200 mg/kg-bodyweight/day, day 83): longer
- Rotarod test ([7]; oral 200 mg/kg-bodyweight/day from day 42): performed better than the untreated control group
- neurological score ([7]; oral 200 mg/kg-bodyweight/day from day 42, female mice): better than that of untreated controls
- activity in mice ([8]; 100 mg/kg orally in drinking water per day): active
- mean serum peak concentrations ([8]; mice, 100 mg/kg orally in drinking water per day): 4 mg/L
- toxicity in mice ([8]; mouse, in vivo): non-toxic

Compound: C[C@@H]1C[C@@H]([C@H](O)CC2CC(=O)NC(=O)C2)C(=O)[C@@H](C)C1 [cycloheximide]
- mutant-induced interaction of Ago2 with Dicer and eIF3L [9]: reduced mutant-induced interaction of Ago2 with Dicer and eIF3L
- Dicer complex activity (ratio of pre-miRNA to mature miRNA) [10]: prevented the reduction in Dicer complex activity
